{"source": "ChEMBL document CHEMBL1140499", "about": "“Novel heparin/heparan sulfate mimics as inhibitors of HGF/SF-induced MET activation” (2007)", "key": {"Cricetulus griseus [1]": {"species": "Cricetulus griseus", "assay": "Inhibition of FGF2-induced FGF receptor activation assessed as ERK activation at 100 ug/mL by Western blot"}, "MDCK": {"test_system": "MDCK", "assay": "Inhibition of HGF/SF-induced migration of MDCK cells at 100 ug/mL after 4 hrs", "assay_type": "functional", "settings": "Canis lupus familiaris"}, "Cricetulus griseus [2]": {"species": "Cricetulus griseus", "assay": "Inhibition of HGF/SF-induced MET receptor activation assessed as ERK activation at 100 ug/mL by Western blot"}}, "note": "Activity calls are given as the source filed them. No cut-off for these calls is given here.", "data": [{"smiles": "O=C(O)c1cc(OC[C@@H](COS(=O)(=O)O)OS(=O)(=O)O)ccc1OCCCCOS(=O)(=O)O", "values": [{"measurement": "Activity", "setting": "Cricetulus griseus [1]", "result": "inactive"}, {"measurement": "inhibition at 100 µg/mL", "setting": "MDCK", "result": 70, "unit": "%"}, {"measurement": "Activity", "setting": "Cricetulus griseus [2]", "result": "Active"}]}, {"smiles": "O=C(O)c1cc(OC[C@@H](COS(=O)(=O)O)OS(=O)(=O)O)ccc1OC[C@H](COS(=O)(=O)O)OS(=O)(=O)O", "values": [{"measurement": "Activity", "setting": "Cricetulus griseus [1]", "result": "inactive"}, {"measurement": "inhibition at 100 µg/mL", "setting": "MDCK", "result": 57, "unit": "%"}, {"measurement": "Activity", "setting": "Cricetulus griseus [2]", "result": "Active"}]}]}
